Measured values from patent publication US20220132852A1, “PESTICIDALLY ACTIVE HETEROCYCLIC DERIVATIVES WITH SULFUR CONTAINING SUBSTITUENTS” (SYNGENTA CROP PROTECTION AG, priority 2019, published 2022).

What was measured:
Type in all cases: in vivo
[1] = test system: Myzus persicae (Green Peach Aphid); experiment: whole plant or invertebrate; details: foliar, 144 h, application rate 200 ppm, sprayed sunflower leaf discs, mixed ages, 6 days after infestation
Procedure: Example B4: Activity Against Myzus persicae (Green Peach Aphid) Feeding/Contact Activity
Sunflower leaf discs were placed onto agar in a 24-well microtiter plate and sprayed with aqueous test solutions prepared from 10′000 ppm DMSO stock solutions. After drying, the leaf discs were infested with an aphid population of mixed ages. The samples were assessed for mortality 6 days after infestation.

[2] = test system: Plutella xylostella (Diamond Back Moth); experiment: Example B3: Activity against Plutella xylostella (diamond back moth), artificial diet; details: 192 h, application rate 200 ppm, eggs on artificial diet, 8 days after infestation, read-out: effect in at least one of the two categories (mortality or growth inhibition)
Procedure: Example B3: Activity Against Plutella xylostella (Diamond Back Moth)
24-well microtiter plates with artificial diet were treated with aqueous test solutions prepared from 10′000 ppm DMSO stock solutions by pipetting. After drying, Plutella eggs were pipetted through a plastic stencil onto a gel blotting paper and the plate was closed with it. The samples were assessed for mortality and growth inhibition in comparison to untreated samples 8 days after infestation. The following compounds gave an effect of at least 80% in at least one of the two categories (mortality or growth inhibition) at an application rate of 200 ppm: P2, P4, P5, P6, P8, P9, P10, P11, P12, P14, P15, P16, P17, P18, P19, P20, P21, P22, P23, P24, P25, P26, P27, P28, P29, P30, P31, P32, P33, P34, P35, P36, P38, P39, P40, P42, P45, P46, P47, P49, P50, P51, P52.

[3] = test system: Euschistus heros (Neotropical Brown Stink Bug); experiment: Example B2: Activity against Euschistus heros (neotropical brown stink bug), sprayed soybean leaves; details: 120 h, application rate 200 ppm, N2 nymphs on sprayed soybean leaves, 5 days after infestation, read-out: effect in at least one of the two categories (mortality or growth inhibition)
Procedure: Example B2: Activity Against Euschistus heros (Neotropical Brown Stink Bug)
Soybean leaves on agar in 24-well microtiter plates were sprayed with aqueous test solutions prepared from 10′000 ppm DMSO stock solutions. After drying the leaves were infested with N2 nymphs. The samples were assessed for mortality and growth inhibition in comparison to untreated samples 5 days after infestation.

[4] = test system: Diabrotica balteata (Corn Root Worm); experiment: Example B1: Activity against Diabrotica balteata (corn root worm), sprayed maize sprouts; details: 96 h, application rate 200 ppm, L2 larvae on sprayed maize sprouts, 4 days after infestation, read-out: effect in at least one of the two categories (mortality or growth inhibition)
Procedure: Example B1: Activity Against Diabrotica balteata (Corn Root Worm)
Maize sprouts placed onto an agar layer in 24-well microtiter plates were treated with aqueous test solutions prepared from 10′000 ppm DMSO stock solutions by spraying. After drying, the plates were infested with L2 larvae (6 to 10 per well). The samples were assessed for mortality and growth inhibition in comparison to untreated samples 4 days after infestation.

[5] = test system: Spodoptera littoralis (Egyptian Cotton Leaf Worm); experiment: Example B6: Activity against Spodoptera littoralis (Egyptian cotton leaf worm); details: foliar, 72 h, application rate 200 ppm, L1 larvae on sprayed cotton leaf discs, 3 days after infestation, read-out: control (mortality, anti-feeding effect or growth inhibition)
Procedure: Example B6: Activity Against Spodoptera littoralis (Egyptian Cotton Leaf Worm)
Cotton leaf discs were placed onto agar in 24-well microtiter plates and sprayed with aqueous test solutions prepared from 10′000 ppm DMSO stock solutions. After drying the leaf discs were infested with five L1 larvae. The samples were assessed for mortality, anti-feeding effect, and growth inhibition in comparison to untreated samples 3 days after infestation. Control of Spodoptera littoralis by a test sample is given when at least one of the categories mortality, anti-feedant effect, and growth inhibition is higher than the untreated sample.

[6] = test system: Myzus persicae (Green Peach Aphid); experiment: Example B5: Activity against Myzus persicae (green peach aphid), systemic activity; details: 144 h, test rate 24 ppm, roots of pea seedlings in test solution, mixed ages, 6 days
Procedure: Example B5: Activity Against Myzus persicae (Green Peach Aphid) Systemic Activity
Roots of pea seedlings infested with an aphid population of mixed ages were placed directly into aqueous test solutions prepared from 10′000 DMSO stock solutions. The samples were assessed for mortality 6 days after placing seedlings into test solutions.

CCS(=O)(=O)c1cc(Oc2ccccn2)cnc1-c1cc2cnn(CC(F)(F)C(F)(F)F)c2cn1 [Compound P21]
≥ 80%: mortality at 200 ppm [1] | percent effect (mortality or growth inhibition) at 200 ppm [2] | percent effect (mortality or growth inhibition) at 200 ppm [3] | percent effect (mortality or growth inhibition) at 200 ppm [4] | percent control (mortality, anti-feedant effect or growth inhibition) at 200 ppm [5]

CCS(=O)(=O)c1cc(-n2ccc(Cl)n2)cnc1-c1cc2cnn(CC(F)(F)C(F)(F)F)c2cn1 [Compound P46, 5-[5-(3-chloropyrazol-1-yl)-3-ethylsulfonyl-2-pyridyl]-1-(2,2,3,3,3-pentafluoropropyl) pyrazolo[3,4-c]pyridine]
≥ 80%: mortality at 200 ppm [1] | percent effect (mortality or growth inhibition) at 200 ppm [2] | percent effect (mortality or growth inhibition) at 200 ppm [3] | percent effect (mortality or growth inhibition) at 200 ppm [4] | percent control (mortality, anti-feedant effect or growth inhibition) at 200 ppm [5]

CCSc1cccnc1-c1cc2ncn(CC(F)(F)C(F)(F)F)c2cn1 [Compound P44, 6-(3-ethylsulfanyl-2-pyridyl)-3-(2,2,3,3,3-pentafluoropropyl) imidazo[4,5-c]pyridine]
≥ 80%: mortality at 24 ppm [6] | mortality at 200 ppm [1]

CCS(=O)(=O)c1cc(C2(C#N)CC2)cnc1-c1cc2ccn(CC(F)(F)C(F)(F)F)c2cn1 [Compound P23, 1-[5-ethylsulfonyl-6-[1-(2,2,3,3,3-pentafluoropropyl)pyrrolo[2,3-c]pyridin-5-yl]-3-pyridyl] cyclopropane-carbonitrile]
≥ 80%: mortality at 200 ppm [1] | percent effect (mortality or growth inhibition) at 200 ppm [2] | percent effect (mortality or growth inhibition) at 200 ppm [3] | percent effect (mortality or growth inhibition) at 200 ppm [4] | percent control (mortality, anti-feedant effect or growth inhibition) at 200 ppm [5]

CCS(=O)(=O)c1cc(Oc2ccccn2)cnc1-c1cc2ccn(CC(F)(F)C(F)(F)F)c2cn1 [Compound P17, 5-[3-ethylsulfonyl-5-(2-pyridyloxy)-2-pyridyl]-1-(2,2,3,3,3-pentafluoropropyl) pyrrolo[2,3-c]pyridine]
≥ 80%: mortality at 200 ppm [1] | percent effect (mortality or growth inhibition) at 200 ppm [2] | percent effect (mortality or growth inhibition) at 200 ppm [3] | percent effect (mortality or growth inhibition) at 200 ppm [4] | percent control (mortality, anti-feedant effect or growth inhibition) at 200 ppm [5]

CC[S+]([O-])c1cccnc1-c1cc2ccn(CC(F)(F)C(F)(F)F)c2cn1 (centres unmarked) [Compound P7, 5-(3-ethylsulfinyl-2-pyridyl)-1-(2,2,3,3,3-pentafluoropropyl) pyrrolo[2,3-c]pyridine]
≥ 80%: mortality at 200 ppm [1] | percent effect (mortality or growth inhibition) at 200 ppm [4]

CCS(=O)(=O)c1ccc(N2CCOC2=O)nc1-c1cc2cnn(CC(F)(F)C(F)(F)F)c2cn1 [Compound P27, 3-[5-ethylsulfonyl-6-[1-(2,2,3,3,3-pentafluoropropyl)pyrazolo[3,4-c]pyridin-5-yl]-2-pyridyl]oxazolidin-2-one]
≥ 80%: mortality at 200 ppm [1] | percent effect (mortality or growth inhibition) at 200 ppm [2] | percent control (mortality, anti-feedant effect or growth inhibition) at 200 ppm [5]

CCS(=O)(=O)c1ccc(N(C)C(=O)NC)nc1-c1cc2cnn(CC(F)(F)C(F)(F)F)c2cn1 [Compound P33, 1-[5-ethylsulfonyl-6-[1-(2,2,3,3,3-pentafluoropropyl)pyrazolo[3,4-c]pyridin-5-yl]-2-pyridyl]-1,3-dimethyl-urea]
≥ 80%: mortality at 200 ppm [1] | percent effect (mortality or growth inhibition) at 200 ppm [2] | percent effect (mortality or growth inhibition) at 200 ppm [3] | percent effect (mortality or growth inhibition) at 200 ppm [4] | percent control (mortality, anti-feedant effect or growth inhibition) at 200 ppm [5]

CCS(=O)(=O)c1ccc(-n2cncn2)nc1-c1cc2ncn(CC(F)(F)C(F)(F)F)c2cn1 [Compound P32, 6-[3-ethylsulfonyl-6-(1,2,4-triazol-1-yl)-2-pyridyl]-3-(2,2,3,3,3-pentafluoropropyl)imidazo[4,5-c]pyridine]
≥ 80%: mortality at 200 ppm [1] | percent effect (mortality or growth inhibition) at 200 ppm [2] | percent effect (mortality or growth inhibition) at 200 ppm [3] | percent effect (mortality or growth inhibition) at 200 ppm [4]

CCS(=O)(=O)c1ccc(NC)nc1-c1cc2cnn(CC(F)(F)C(F)(F)F)c2cn1 [Compound P14, 5-ethylsulfonyl-N-methyl-6-[1-(2,2,3,3,3-pentafluoropropyl)pyrazolo[3,4-c]pyridin-5-yl]pyridin-2-amine]
≥ 80%: mortality at 200 ppm [1] | percent effect (mortality or growth inhibition) at 200 ppm [2] | percent effect (mortality or growth inhibition) at 200 ppm [3] | percent effect (mortality or growth inhibition) at 200 ppm [4] | percent control (mortality, anti-feedant effect or growth inhibition) at 200 ppm [5]

CCS(=O)(=O)c1ccc(N(C)C(=O)C2CC2)nc1-c1cc2cnn(CC(F)(F)C(F)(F)F)c2cn1 [Compound P15, N-[5-ethylsulfonyl-6-[1-(2,2,3,3,3-pentafluoropropyl)pyrazolo[3,4-c]pyridin-5-yl]-2-pyridyl]-N-methyl-cyclopropane-carboxamide]
≥ 80%: mortality at 200 ppm [1] | percent effect (mortality or growth inhibition) at 200 ppm [2] | percent effect (mortality or growth inhibition) at 200 ppm [3] | percent effect (mortality or growth inhibition) at 200 ppm [4] | percent control (mortality, anti-feedant effect or growth inhibition) at 200 ppm [5]

CCS(=O)(=O)c1cc(N(C)C(C)=O)cnc1-c1cc2ccn(CC(F)(F)C(F)(F)F)c2cn1 [Compound P16, N-[5-ethylsulfonyl-6-[1-(2,2,3,3,3-pentafluoropropyl)pyrrolo[2,3-c]pyridin-5-yl]-3-pyridyl]-N-methyl-acetamide]
≥ 80%: mortality at 24 ppm [6] | mortality at 200 ppm [1] | percent effect (mortality or growth inhibition) at 200 ppm [2] | percent effect (mortality or growth inhibition) at 200 ppm [4] | percent control (mortality, anti-feedant effect or growth inhibition) at 200 ppm [5]

CCS(=O)(=O)c1cc(C2CC2)cnc1-c1cc2ncn(CC(F)(F)C(F)(F)F)c2cn1 [Compound P52, 6-(5-cyclopropyl-3-ethylsulfonyl-2-pyridyl)-3-(2,2,3,3,3-pentafluoropropyl) imidazo[4,5-c]pyridine]
≥ 80%: mortality at 24 ppm [6] | percent effect (mortality or growth inhibition) at 200 ppm [2] | percent effect (mortality or growth inhibition) at 200 ppm [3] | percent effect (mortality or growth inhibition) at 200 ppm [4] | percent control (mortality, anti-feedant effect or growth inhibition) at 200 ppm [5]

CCS(=O)(=O)c1ccc(-n2cncn2)nc1-c1cc2cnn(CC(F)(F)C(F)(F)F)c2cn1 [Compound P22, 5-[3-ethylsulfonyl-6-(1,2,4-triazol-1-yl)-2-pyridyl]-1-(2,2,3,3,3-pentafluoropropyl) pyrazolo[3,4-c] pyridine]
≥ 80%: mortality at 200 ppm [1] | percent effect (mortality or growth inhibition) at 200 ppm [2] | percent effect (mortality or growth inhibition) at 200 ppm [3] | percent effect (mortality or growth inhibition) at 200 ppm [4] | percent control (mortality, anti-feedant effect or growth inhibition) at 200 ppm [5]

CCS(=O)(=O)c1ccc(NC)nc1-c1cc2ccn(CC(F)(F)C(F)(F)F)c2cn1 [Compound P24, 5-ethylsulfonyl-N-methyl-6-[1-(2,2,3,3,3-pentafluoropropyl)pyrrolo[2,3-c]pyridin-5-yl]pyridin-2-amine]
≥ 80%: mortality at 200 ppm [1] | percent effect (mortality or growth inhibition) at 200 ppm [2] | percent effect (mortality or growth inhibition) at 200 ppm [3] | percent effect (mortality or growth inhibition) at 200 ppm [4] | percent control (mortality, anti-feedant effect or growth inhibition) at 200 ppm [5]

CCS(=O)(=O)c1cccnc1-c1cc2ccn(CC(F)(F)C(F)(F)F)c2cn1 [Compound P8, 5-(3-ethylsulfonyl-2-pyridyl)-1-(2,2,3,3,3-pentafluoropropyl) pyrrolo[2,3-c]pyridine]
≥ 80%: mortality at 200 ppm [1] | percent effect (mortality or growth inhibition) at 200 ppm [2] | percent effect (mortality or growth inhibition) at 200 ppm [3] | percent effect (mortality or growth inhibition) at 200 ppm [4] | percent control (mortality, anti-feedant effect or growth inhibition) at 200 ppm [5]
